Measurements published in ChEMBL document CHEMBL5724796, “Tm Shift (DSF) assay results for EUbOPEN Chemogenomics Library” (2024).
Where “and” joins values, the source holds several entries; their conditions need not be identical. Equal values may be shown once. Non-standard residues stand in square brackets, D forms with d. Residues, ends and D or L forms follow the SMILES beside them. *: point of attachment. Tyr(3-Cl) = N[C@@H](Cc1ccc(O)c(Cl)c1)C(=O)O; Benzoyl(3,5-Cl2) = O=C(c1cc(Cl)cc(Cl)c1)*; Lys(Et2) = CCN(CC)CCCC[C@H](N)C(=O)O; Gly(cPent) = N[C@H](C(=O)O)C1CCCC1; NH(propargyl) = C#CCN*

How the values were obtained:
Peregrin (Homo sapiens) = target: T1, Peregrin (Homo sapiens) (UniProt P55201); conditions: Compound concentration 20.0 uM
T1 sequence (whole entry): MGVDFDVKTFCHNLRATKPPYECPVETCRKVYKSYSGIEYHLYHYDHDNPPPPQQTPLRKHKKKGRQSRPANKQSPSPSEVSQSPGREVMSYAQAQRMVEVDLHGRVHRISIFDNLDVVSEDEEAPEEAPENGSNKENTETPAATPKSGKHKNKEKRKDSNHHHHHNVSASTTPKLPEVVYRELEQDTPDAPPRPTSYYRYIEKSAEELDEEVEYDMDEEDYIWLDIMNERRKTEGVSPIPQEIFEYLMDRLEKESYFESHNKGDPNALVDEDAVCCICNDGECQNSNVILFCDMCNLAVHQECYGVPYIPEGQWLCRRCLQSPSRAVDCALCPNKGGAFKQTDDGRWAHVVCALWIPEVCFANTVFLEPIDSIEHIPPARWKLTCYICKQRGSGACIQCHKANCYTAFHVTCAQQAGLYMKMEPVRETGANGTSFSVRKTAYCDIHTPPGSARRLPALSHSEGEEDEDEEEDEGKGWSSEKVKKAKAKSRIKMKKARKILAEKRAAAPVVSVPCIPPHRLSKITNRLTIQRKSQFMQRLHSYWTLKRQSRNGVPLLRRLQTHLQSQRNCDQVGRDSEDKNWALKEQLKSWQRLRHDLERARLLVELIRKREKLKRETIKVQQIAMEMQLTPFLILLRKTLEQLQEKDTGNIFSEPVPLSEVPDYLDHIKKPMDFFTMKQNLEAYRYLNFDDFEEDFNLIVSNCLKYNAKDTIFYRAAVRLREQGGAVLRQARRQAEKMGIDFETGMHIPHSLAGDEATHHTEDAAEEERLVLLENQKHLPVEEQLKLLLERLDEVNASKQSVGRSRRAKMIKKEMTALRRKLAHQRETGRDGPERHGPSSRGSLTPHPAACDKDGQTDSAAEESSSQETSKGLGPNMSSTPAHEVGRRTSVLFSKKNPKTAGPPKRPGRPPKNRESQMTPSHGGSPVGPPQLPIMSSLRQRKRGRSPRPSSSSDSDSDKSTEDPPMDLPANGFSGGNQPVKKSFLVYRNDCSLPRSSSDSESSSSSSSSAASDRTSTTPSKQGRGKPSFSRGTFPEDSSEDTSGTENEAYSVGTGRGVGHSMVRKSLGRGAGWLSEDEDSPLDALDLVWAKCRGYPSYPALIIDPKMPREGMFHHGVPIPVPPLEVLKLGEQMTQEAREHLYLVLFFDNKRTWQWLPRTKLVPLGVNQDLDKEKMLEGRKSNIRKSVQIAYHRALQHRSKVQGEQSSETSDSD

[1] = target: Fibroblast growth factor receptor 2 (Homo sapiens) (UniProt P21802); conditions: Compound concentration 20.0 uM
Fibroblast growth factor receptor 2 (Homo sapiens), sequence (P21802 22-821 limits assumed): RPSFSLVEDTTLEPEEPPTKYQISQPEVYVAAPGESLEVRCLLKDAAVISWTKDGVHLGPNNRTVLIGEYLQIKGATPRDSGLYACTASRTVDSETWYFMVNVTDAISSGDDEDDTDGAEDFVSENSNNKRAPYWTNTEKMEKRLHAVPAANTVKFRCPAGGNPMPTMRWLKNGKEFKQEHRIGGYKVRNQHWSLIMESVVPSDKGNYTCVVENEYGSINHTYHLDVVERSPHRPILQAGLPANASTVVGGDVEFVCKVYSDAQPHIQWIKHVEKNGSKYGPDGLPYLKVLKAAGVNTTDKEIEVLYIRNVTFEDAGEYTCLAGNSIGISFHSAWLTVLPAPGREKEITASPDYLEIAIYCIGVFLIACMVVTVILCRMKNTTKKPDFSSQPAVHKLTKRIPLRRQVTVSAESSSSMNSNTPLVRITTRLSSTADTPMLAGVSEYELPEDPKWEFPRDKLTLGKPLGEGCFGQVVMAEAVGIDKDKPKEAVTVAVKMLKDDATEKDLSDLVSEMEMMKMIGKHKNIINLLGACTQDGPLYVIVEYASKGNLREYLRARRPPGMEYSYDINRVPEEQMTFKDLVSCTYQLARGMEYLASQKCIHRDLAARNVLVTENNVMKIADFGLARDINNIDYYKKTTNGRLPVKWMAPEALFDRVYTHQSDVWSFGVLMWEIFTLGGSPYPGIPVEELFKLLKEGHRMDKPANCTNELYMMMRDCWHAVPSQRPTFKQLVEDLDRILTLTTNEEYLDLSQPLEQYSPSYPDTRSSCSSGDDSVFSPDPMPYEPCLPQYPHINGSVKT
Description: Thermal Shift Assay. Domain: start/stop: T457-E768

SMILES | ΔTm (Peregrin (Homo sapiens)) | ΔTm [1]
CN1CCN2c3c(cccc31)[C@@H]1CN(CCCC(=O)c3ccc(F)cc3)CC[C@@H]12 | -0.19 °C | -0.37 °C
O=C(NO)c1ccc(CN(c2cnccn2)c2cnccn2)cc1 | -0.86 °C | -0.14 °C
N#C[C@@H]1CCCN1C(=O)CNC(=O)c1ccnc2ccc(OCCCN3CCN(C(=O)CN4CCN(CC(=O)O)CCN(CC(=O)O)CCN(CC(=O)O)CC4)CC3)cc12 | 1.8 °C | 0.18 °C
O=c1[nH]c(N2CCC3(CC2)CN(CCO)c2cc(F)cc(F)c23)nc2c1CCCC2 | 1.75 °C | -0.52 °C
Cc1cc(OCCCNCC(C)(C)C(N)=O)ccc1Cc1c(O[C@@H]2O[C@H](CO)[C@@H](O)[C@H](O)[C@H]2O)n[nH]c1C(C)C | 1.07 °C | -0.15 °C
Cc1nc2ccccn2c1C(=O)CN1CCN(c2ccc(F)cn2)CC1 | 0.49 °C | -0.08 °C
O=C(O)/C(S)=C/c1ccc(I)cc1 | -1.4 °C | -1 °C
O=C(O)Cc1ccc(Cc2cc(-c3cccc(Cl)c3)nc(C(F)(F)F)c2)cc1 | -0.4 °C | -0.76 °C
COc1cc(Oc2ccnc3cc(OC)c(OC)cc23)ccc1NC(=O)NC(C)c1nccs1 (centres undefined) | -1.23 °C | -3.29 °C
CC(C)C[C@@H](C=O)NC(=O)[C@@H](NS(=O)(=O)c1ccc(F)cc1)C(C)C | -1.65 °C | -0.07 °C
O=C1CCc2cc(OCCCCc3nnnn3C3CCCCC3)ccc2N1 | -1.16 °C | -0.38 °C
COc1cccc(OC)c1S(=O)(=O)Nc1noc2cc(Cn3cccn3)cc(OC)c12 | -0.57 °C | -3.46 °C
CC(=O)N[C@@H](CC(=O)O)C(=O)N[C@@H](CC(N)=O)C(=O)N[C@@H](CC(C)C)C(=O)N[C@H](C=O)CC(=O)O | 1.79 °C | 0.44 °C
O=C1c2ccccc2C(=O)c2oc(-c3ccccc3)nc21 | 1.63 °C | -1.3 °C
NC(=O)[C@H]1CCCCc2c1[nH]c1ccc(Cl)cc21 | 0.13 °C | 1.09 °C
CCn1c(=O)c(C)cn(Cc2nnc(-c3ccc(F)c(O)c3F)s2)c1=O | -0.64 °C | 0.53 °C
Cc1nc(-c2cnc(NC(C)C)n(C)c2=O)ccc1Oc1ccnc(-c2cnn(C)c2)c1 | -1.33 °C | 0.6 °C
C[C@H](N)C(=O)N1C[C@H](CCCB(O)O)[C@](N)(C(=O)O)C1 | -0.07 °C | 0.25 °C
O=C(c1cc(Cc2n[nH]c(=O)c3ccccc23)ccc1F)N1CC(CNC2CC2)C1 | -0.32 °C | -0.3 °C
CC(=O)C(=Cc1cc(O)c(O)c([N+](=O)[O-])c1)C(C)=O | 0.33 °C | -0.23 °C
Cn1c(=O)cc(N2CCC[C@@H](N)C2)n(Cc2cc(F)ccc2C#N)c1=O | 0.76 °C | 0.72 °C
Cc1nccn1CC1CCc2c(c3ccccc3n2C)C1=O (centres undefined) | 0.91 °C | -0.16 °C
CN(Cc1cc(Br)cc(Br)c1N)C1CCCCC1 | 1.45 °C | -0.25 °C
CC(C)(OCc1cc(-c2cccc(OC3CC3)c2)n(-c2ccccc2Cl)n1)C(=O)O | 0.83 °C | -0.52 °C
CCC[C@H]1CNCc2c1[nH]c(=O)c(C#N)c2N1CCC2(CC1)CC2 | -0.83 °C | 0.92 °C
O=C(NCC1CCOCC1)c1n[nH]cc1NC(=O)c1c(F)cccc1F | -1.34 °C | 0.69 °C
Cc1c(Nc2ccc(S(=O)(=O)N3CCN(C)CC3)cc2F)nc2ccc(-c3cnn(C4CC4)c3)cn2c1=O | 0.83 °C | -0.17 °C

SMILES | ΔTm (Peregrin (Homo sapiens)) | ΔTm [1]
COC(=O)[C@H]1[C@H]2C[C@@H]3c4[nH]c5cc(OC)ccc5c4CCN3C[C@H]2C[C@@H](OC(=O)c2cc(OC)c(OC)c(OC)c2)[C@@H]1OC | 0.08 °C | -0.07 °C
CC(C)n1nc(-c2cc3cc(O)ccc3[nH]2)c2c(N)ncnc21 | 1.52 °C | 4.67 °C
Cc1cc(-c2ccccc2)cc(C(=O)NNS(=O)(=O)c2ccccc2)c1F | -1.3 °C | 0 °C
CC(C)c1c(-c2ccccc2)[nH]c2c(C#N)cnn2c1=O | 1.31 °C | -0.06 °C
CCOc1ccc(Cc2cc([C@]34OC[C@](CO)(O3)[C@@H](O)[C@H](O)[C@H]4O)ccc2Cl)cc1 | 0.95 °C | 0.47 °C
CN1CCN(c2cc(C(=O)Nc3ncc(SCc4cccc(C(F)(F)F)c4)s3)ccn2)CC1 | -1.6 °C | 0.89 °C
Cc1ccc2[nH]c3c(c2c1)CCCC3C(N)=O (centres undefined) | 0.79 °C | 0.03 °C
C#CCNC(=O)[C@H](CO)NC(=O)[C@H](CCCCN(CC)CC)NC(=O)[C@@H](NC(=O)[C@@H](NC(=O)[C@H](Cc1ccc(O)c(Cl)c1)NC(=O)c1cc(Cl)cc(Cl)c1)C1CCCC1)[C@@H](C)CC ({Benzoyl(3,5-Cl2)}-[Tyr(3-Cl)][Gly(cPent)]I[Lys(Et2)]S-{NH(propargyl)}) | 1.15 °C | -1.31 °C
CS(=O)(=O)c1ccc(Oc2cc(F)cc(C#N)c2)c2c1[C@H](O)[C@H](F)[C@@H]2F | 2.16 °C | 0.61 °C
CNC[C@@H](O)COc1ccc(Cl)c(-c2nc(-c3c(C)noc3C)c(C)c(N3CC4(CCN(C(=O)OC)CC4)C3)n2)c1 | -1.65 °C | 0.49 °C
Cc1ccc(NC2=CC(=O)c3sc(C)nc3C2=O)cc1 | -1.72 °C | -0.13 °C
C[C@H](NC(=O)CCc1nc2ccccc2c(=O)[nH]1)c1ccccc1 | -0.15 °C | 0.69 °C
CC(C)c1cc(C(=O)N2CC[C@@H](NC(=O)C3CC3)C2)[nH]n1 | -0.47 °C | -0.51 °C
Cc1nc(Nc2ncc(C(=O)Nc3c(C)cccc3Cl)s2)cc(N2CCN(CCO)CC2)n1 | -0.2 °C | 4.7 °C
CCCCCn1c(C)c(C(=O)c2cccc3ccccc23)c2ccccc21 | 2.08 °C | 0.39 °C
CC(=O)O[C@]1(C(C)=O)CC[C@H]2[C@@H]3CCC4=CC(=O)CCC4=C3[C@@H](c3ccc(N(C)C)cc3)C[C@@]21C | -2.65 °C | -0.06 °C
O=C(N1CCCCC1c1ccccc1)n1cc(-c2ccc(-c3cccc(CO)c3)cc2)nn1 (centres undefined) | -1.91 °C | -4.93 °C
O=c1[nH][nH]c(=O)c2cc(OCC3CCCCC3)ccc12 | 2.63 °C | 1.11 °C
COc1cc(-c2cn(C)c(=O)c3cnccc23)cc(OC)c1CN(C)C | 6.51 °C | 0.18 °C
CN(C)Cc1ccc(-c2nc3cccc4c3n2CCNC4=O)cc1 | 0.88 °C | 0.73 °C
N[C@@H](CC(=O)N1CCN(C(c2ccc(F)cc2)c2ccc(F)cc2)CC1)C(=O)N1Cc2ccccc2C1 | -1.34 °C | 0 °C
CCO/N=C1\c2ccccc2-c2nc(C#N)c(C#N)nc21 | 2.55 °C and 0.36 °C | 0.21 °C and 0.32 °C
Cc1nc(-c2cnn(C)c2-c2ccc(C(F)(F)F)cn2)c2c(N3CCC3)ncnn12 | 0.67 °C | 0.06 °C
COc1ccccc1C(=O)Nc1cc2c(cc1N1CCCCC1)n(C)c(=O)n2C | – | 0.52 °C
COc1cc(Nc2ncc(F)c(Nc3ccc4c(n3)NC(=O)C(C)(C)O4)n2)cc(OC)c1OC | -0.89 °C | –
COc1ccccc1C(=O)Nc1cc2c(cc1N1CCNC[C@H]1C)n(C)c(=O)n2C | – | 0.68 °C
CN1CCN(c2ccc3nc(-c4c(N)c5c(F)cccc5[nH]c4=O)[nH]c3c2)CC1 | -0.73 °C | –
